Results taken from patent US20240009173A1, “Use of 5-HT3-Targeting Drugs for Treatment of Acute Kidney Injury” (priority 2020, published 2024).
Where two headings read alike, the source gives them in different places.

Assays:
[1] = tested on: patients with AKI; conditions: human, in vivo
[2] = tested on: patients with AKI; conditions: human, in vivo; remark: listed apart in the source
[3] = tested on: patients with AKI; design: species or system human; conditions: in vivo
[4] = tested on: all ICU patients; conditions: cited from earlier work
[5] = tested on: ICU patients with AKI; conditions: cited from earlier work
[6] = literature and/or clinical trials

Row | Compound | Death rate in MIMIC III database [1] | Death rate in eICU database [2] | Coefficient [3] | Reported for protecting effect in all ICU patients [4, 6] | Reported for protecting effect in ICU patients with AKI [5, 6] | Reported for protecting effect in all ICU patients [4] | Reported for protecting effect in ICU patients with AKI [5]
1 | N[C@@H](Cc1cc(I)c(Oc2cc(I)c(O)c(I)c2)c(I)c1)C(=O)O [Levothyroxine] | 218.39 per 1,000 patients | 109.02 per 1,000 patients | – | – | – | – | –
2 | O=C(CCCN1CCC(O)(c2ccc(Cl)cc2)CC1)c1ccc(F)cc1 [Haloperidol] | 194.85 per 1,000 patients | 201.23 per 1,000 patients | −0.063 | N | N | – | –
3 | CC(C)c1cccc(C(C)C)c1O [Propofol] | 287.82 per 1,000 patients | 261.45 per 1,000 patients | – | – | – | Y^16 | Y^17
4 | C[C@H](CS)C(=O)N1CCC[C@H]1C(=O)O [Captopril] | 133.04 per 1,000 patients | – | −0.044 | Y^18 | Y^19 | – | –
5 | C[C@@H]1C[C@H]2[C@@H]3CCC4=CC(=O)C=C[C@]4(C)[C@@]3(F)[C@@H](O)C[C@]2(C)[C@@]1(O)C(=O)CO [Dexamethasone] | 375 per 1,000 patients | 58.14 per 1,000 patients | – | – | – | – | –
6 | CC(C)[N+]1(C)[C@@H]2CC[C@H]1C[C@@H](OC(=O)C(CO)c1ccccc1)C2 (stereo partly shown) [Ipratropium] | 258.87 per 1,000 patients | 172.83 per 1,000 patients | – | – | – | – | –
7 | C[C@H]1COc2c(N3CCN(C)CC3)c(F)cc3c(=O)c(C(=O)O)cn1c23 [Levofloxacin] | 270.20 per 1,000 patients | 146.84 per 1,000 patients | – | – | – | – | –
8 | CC(C)c1c(C(=O)Nc2ccccc2)c(-c2ccccc2)c(-c2ccc(F)cc2)n1CC[C@@H](O)C[C@@H](O)CC(=O)O [Atorvastatin] | 156.06 per 1,000 patients | 88.66 per 1,000 patients | – | – | – | – | –
9 | NC(N)=Nc1nc(CSCCC(N)=NS(N)(=O)=O)cs1 [Famotidine] | 260.79 per 1,000 patients | 184.42 per 1,000 patients | – | – | – | – | –
10 | CC(=O)CC(c1ccccc1)c1c(O)c2ccccc2oc1=O (stereo not shown) [Warfarin] | 67.31 per 1,000 patients | 35.34 per 1,000 patients | −0.115 | Y^1 | N | – | –
11 | Insulin | 241.12 per 1,000 patients | 172.01 per 1,000 patients | – | – | – | – | –
12 | CO/N=C(\C(=O)N[C@@H]1C(=O)N2C(C(=O)[O-])=C(C[N+]3(C)CCCC3)CS[C@H]12)c1csc(N)n1 [Cefepime] | 340.81 per 1,000 patients | 228.51 per 1,000 patients | – | – | – | – | –
13 | NNc1nncc2ccccc12 [Hydralazine] | 155.12 per 1,000 patients | 80.60 per 1,000 patients | −0.035 | – | – | – | –
14 | CCCCc1oc2ccccc2c1C(=O)c1cc(I)c(OCCN(CC)CC)c(I)c1 [Amiodarone] | 338.95 per 1,000 patients | 269.89 per 1,000 patients | 0.090 | N | N | – | –
15 | CCN1CCN(C(=O)N[C@@H](C(=O)N[C@@H]2C(=O)N3[C@@H]2SC(C)(C)[C@@H]3C(=O)O)c2ccccc2)C(=O)C1=O [Piperacillin] | 336.96 per 1,000 patients | 200.39 per 1,000 patients | – | Y | N | – | –
16 | CC(=O)Oc1ccc(C(c2ccc(OC(C)=O)cc2)c2ccccn2)cc1 [Bisacodyl] | 194.46 per 1,000 patients | 156.59 per 1,000 patients | −0.021 | – | – | – | –
17 | OC(Cn1cncn1)(Cn1cncn1)c1ccc(F)cc1F [Fluconazole] | 333.33 per 1,000 patients | – | – | Y^5 | Y^6 | – | –
18 | NCCCC[C@H](N[C@@H](CCc1ccccc1)C(=O)O)C(=O)N1CCC[C@H]1C(=O)O [Lisinopril] | 53.11 per 1,000 patients | 21.71 per 1,000 patients | −0.049 | Y^14 | Y^15 | – | –
19 | COc1ccc2c3c1O[C@H]1C(=O)CC[C@@]4(O)[C@@H](C2)N(C)CC[C@]314 [Oxycodone] | 94.98 per 1,000 patients | 55.56 per 1,000 patients | −0.089 | – | – | Y^9 | N

Row | Compound | Death rate in MIMIC III database [1] | Death rate in eICU database [2] | Coefficient [3] | Reported for protecting effect in all ICU patients [4, 6] | Reported for protecting effect in ICU patients with AKI [5, 6] | Reported for protecting effect in all ICU patients [4] | Reported for protecting effect in ICU patients with AKI [5]
20 | OC[C@H]1O[C@@H](O[C@@H]2[C@@H](CO)OC(O)(CO)[C@H]2O)[C@H](O)[C@@H](O)[C@H]1O (mixture of isomers) [Lactulose] | 326.35 per 1,000 patients | 233.56 per 1,000 patients | – | N | N | – | –
21 | Heparin | 210.41 per 1,000 patients | 143.03 per 1,000 patients | −0.053 | Y^10 | N | – | –
22 | Cc1ncc2n1-c1ccc(Cl)cc1C(c1ccccc1F)=NC2 [Midazolam] | 899.95 per 1,000 patients | 273.07 per 1,000 patients | 0.027 | – | – | Y^20 | N
23 | O=[N+]([O-])OCC(CO[N+](=O)[O-])O[N+](=O)[O-] [Nitroglycerin] | 192.42 per 1,000 patients | 758.55 per 1,000 patients | – | – | – | N | N
24 | Cc1ncc([N+](=O)[O-])n1CCO [Metronidazole] | 338.05 per 1,000 patients | 230.12 per 1,000 patients | – | – | – | – | –
25 | O=S(=O)([O-])[O-].[Mg+2] [Magnesium Sulfate] | 203.36 per 1,000 patients | 172.14 per 1,000 patients | −0.054 | – | – | Y^3 | Y^4
26 | CC(=O)Oc1ccccc1C(=O)O [Aspirin] | 178.97 per 1,000 patients | 126.32 per 1,000 patients | – | – | – | – | –
27 | NC[C@H](O)c1ccc(O)c(O)c1 [Norepinephrine] | 497.51 per 1,000 patients | 336.62 per 1,000 patients | 0.167 | Y^2 | N | – | –
28 | C[C@]12C=CC(=O)C=C1CC[C@@H]1[C@@H]2C(=O)C[C@@]2(C)[C@H]1CC[C@]2(O)C(=O)CO [Prednisone] | 191.30 per 1,000 patients | 60.49 per 1,000 patients | – | – | – | – | –
29 | CCCCC(CC)COC(=O)CC(C(=O)OCC(CC)CCCC)S(=O)(=O)O (stereo not shown) [Docusate] | 178.57 per 1,000 patients | 136.48 per 1,000 patients | −0.028 | N | N | – | –
30 | Glucagon | 176.04 per 1,000 patients | 129.74 per 1,000 patients | −0.050 | – | – | – | –
31 | COc1ccc([C@@H]2Sc3ccccc3N(CCN(C)C)C(=O)[C@@H]2OC(C)=O)cc1 [Diltiazem] | 274.96 per 1,000 patients | 121.74 per 1,000 patients | – | – | – | – | –
32 | COc1ccnc(C[S+]([O-])c2nc3ccc(OC(F)F)cc3[nH]2)c1OC (stereo not shown) [Pantoprazole] | 254.46 per 1,000 patients | 151.82 per 1,000 patients | −0.025 | – | – | – | –
33 | CC1=C(C/C=C(\C)CCC[C@H](C)CCC[C@H](C)CCCC(C)C)C(=O)c2ccccc2C1=O [Phytonadione] | 364.17 per 1,000 patients | 335.33 per 1,000 patients | – | Y | N | – | –
34 | [H]/N=C(\N/C(=N/[H])NCCCCCCNC(=N)NC(=N)Nc1ccc(Cl)cc1)Nc1ccc(Cl)cc1 [Chlorhexidine] | 328.48 per 1,000 patients | 222.98 per 1,000 patients | – | – | – | – | –
35 | CN[C@H](CC(C)C)C(=O)N[C@H]1C(=O)N[C@@H](CC(N)=O)C(=O)N[C@H]2C(=O)N[C@H]3C(=O)N[C@H](C(=O)N[C@H](C(=O)O)c4cc(O)cc(O)c4-c4cc3ccc4O)[C@H](O)c3ccc(c(Cl)c3)Oc3cc2cc(c3O[C@@H]2O[C@H](CO)[C@@H](O)[C@H](O)[C@H]2O[C@H]2C[C@](C)(N)[C@H](O)[C@H](C)O2)Oc2ccc(cc2Cl)[C@H]1O [Vancomycin] | 300.03 per 1,000 patients | 229.29 per 1,000 patients | – | – | – | – | –
36 | C=CC[C@@H]1/C=C(\C)C[C@H](C)C[C@H](OC)[C@H]2O[C@@](O)(C(=O)C(=O)N3CCCC[C@H]3C(=O)O[C@H](/C(C)=C/[C@@H]3CC[C@@H](O)[C@H](OC)C3)[C@H](C)[C@@H](O)CC1=O)[C@H](C)C[C@@H]2OC [Tacrolimus] | 153.28 per 1,000 patients | 40 per 1,000 patients | – | – | – | – | –
37 | CC(C)(C)NCC(O)c1ccc(O)c(CO)c1 (stereo not shown) [Albuterol] | 257.20 per 1,000 patients | 174.59 per 1,000 patients | – | – | – | – | –
